These results are taken from PMC8518915, “Evaluation of 4‐(4‐Fluorobenzyl)piperazin‐1‐yl]‐Based Compounds as Competitive Tyrosinase Inhibitors Endowed with Antimelanogenic Effects” (Chemmedchem, 2021).

pIC50: −log10 of the molar value. “Also recorded” adds a separate entry of the source. Like-named read-outs stand apart in the source and are kept apart here.

Data set [1] relates to AbTYR. The conditions noted are these: cited from earlier work; for pIC50: efficacy against AbTYR; for mode of inhibition: prototypical AbTYR inhibitor.
Data set [2] addresses T1, TYR from Agaricus bisporus (AbTYR) (Agaricus bisporus, UniProt C7FF04).
T1 construct: purchased Sigma Chemical Co. (St. Louis, MO, USA)
The conditions noted are these: AbTYR kinetic studies; cited from earlier work.

Data set [3] in a line: MTT assay for cell viability. The data set is classed as cell-based, Murine. The following applies: mouse, B16F10 melanoma cells, B16F10 cells, 100 μM (highest concentration). Here is the method:
(§1) MTT assay was used to evaluate the biosafety effectiveness of 23, 25 and 26. Cells were treated with different concentration of each compound (0–100 μM), for 48 h, to determine the potential cytotoxic effect on B16F10 cells. […] To achieve a deeper characterization of most promising and potent inhibitor 26, we further examined its inhibitory effect on the tyrosinase activity in the cellular model. DOPA staining assay was performed using lysates of B16F10 cells untreated or treated with hormone with or without the tested compound 26. […] This was evident with the appearance of a darker band compared to that of untreated control (Figure 7). […] As result, the inhibitory effects of the compound 26 was also confirmed in the cellular model.
(§2) The viability of B16F10 cells was detected by the colorimetric 3‐(4,5‐dimethylthiazol‐2‐yl)‐2,5‐diphenyltetrazolium bromide (MTT) assay. A density of 5x10^3 cells/well, in the absence or presence of compounds (ranging from 1 μM to 100 μM), were seeded in 96‐well plates. The cells were incubated for 48 h at the temperature of 37 °C. MTT solution (0.5 mg/mL) was added at the end of incubation time. The medium was removed after 3 h of incubation at 37 °C. Then, DMSO was added to the precipitates and the absorbance was determined at 560 nm using a microplate reader (Multiskan FC – Thermo Scientific). The cell viability was expressed as the percentage of the amount of living cells in treated samples relative to untreated controls (100 % viability). The mean value and standard deviation (SD) were calculated from triplicate experiments.
On the technique in general: Tetrazolium dyes change colour on reduction, which living cells bring about.

For data set [4], the system named is B16F10 cells. The experiment in a line: MTT assay for cell viability. The data set is classed as cell-based, Murine. The following applies: B16F10 melanoma cells, 48 h, at the concentration inhibiting tyrosinase activity. The method, then:
as §1, §2

The target of data set [5] is T1, TYR from Agaricus bisporus (AbTYR). The experiment in a line: Kinetic analysis of the tyrosinase inhibition (Lineweaver‐Burk plots). The conditions noted are these: L‐DOPA 0.6–5 mM. The format is biochemical. Here is the method:
Compounds 23, 25 and 26 were selected for kinetic studies to obtain more information about the mode of action against TYR; thereby their inhibitory effects on diphenolase activity were measured using increasing concentration of L‐DOPA. (0.6–5 mM). The reaction mixture consisted of four different concentrations of L‐DOPA (0.6–5 mM), the substrate, and AbTYR in […] (0.05 M, pH 6.8).
Compounds 23 and 25 (0.2, 0.4, and 0.8 μM), 26 (0.09, 0.18, and 0.36 μM) were added to the reaction mixture. The Michaelis‐Menten constant (Km) and maximal velocity (Vmax) of tyrosinase were determined by Lineweaver‐Burk plots.
A series of experiments were performed to determine the mode of inhibition of compounds 23, 25, 26 on tyrosinase. The reaction mixture consisted of four different concentrations of the substrate L‐DOPA (0.6–5 mM), and mushroom tyrosinase in phosphate buffer (0.05 M, pH 6.8). In addition, three different concentrations of compounds 23, 25, 26 (0.2–0.4–0.8 μM) were used for the analysis. Preincubation and measurement time were the same as discussed in mushroom tyrosinase inhibition assay. The Michaelis‐Menten constant (Km) and maximal velocity (Vmax) of tyrosinase were determined by Lineweaver‐Burk plots.

Data set [6] concerns tyrosinase activity in B16F10 cells. The experiment in a line: Tyrosinase zymography (L‐DOPA staining) of cell lysates. The data set is classed as cell-based, Murine. Here is the method: as §1
The tyrosinase activity was performed by DOPA‐staining assay as previously reported but with slight modifications.[29] A day after seeding the B16F10 cells (6X104 cells/mL) the culture medium was changed by the same medium supplemented with either α‐MSH alone or α‐MSH plus compound (0–100 μM)) or kojic acid (100 μM). After incubation for 48 h, cells were washed and lysed using phosphate buffer (50 mM, pH 6.8) containing Triton X‐100 (1 %) and phenylmethyl‐sulfonyl fluoride (0.1 mM). Cellular lysates were centrifugated at 12000 g for 20 min at 4 °C. Bradford method was used to determine the protein content using BSA as standard. […]

T1 sequence (C7FF04 1-392 limits assumed): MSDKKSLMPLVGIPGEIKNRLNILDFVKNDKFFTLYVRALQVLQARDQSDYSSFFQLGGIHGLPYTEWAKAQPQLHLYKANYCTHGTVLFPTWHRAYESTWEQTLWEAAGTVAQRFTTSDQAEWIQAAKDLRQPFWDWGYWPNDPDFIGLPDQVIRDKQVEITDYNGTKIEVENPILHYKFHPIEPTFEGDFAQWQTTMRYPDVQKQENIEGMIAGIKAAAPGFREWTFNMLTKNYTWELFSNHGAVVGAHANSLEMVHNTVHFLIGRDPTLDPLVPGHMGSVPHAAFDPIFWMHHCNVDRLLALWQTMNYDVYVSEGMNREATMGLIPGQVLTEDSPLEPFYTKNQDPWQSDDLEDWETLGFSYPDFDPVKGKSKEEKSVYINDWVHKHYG

Consider `CCOc1cccc(C(C)=NNC(N)=S)c1` [Compound 1, 2‐(1‐(3‐ethoxyphenyl)ethylidene)hydrazine‐1carbothioamide], for which, in data set [1], the pIC50 was 6.07 and the mode of inhibition entry is “competitive”.

Regarding `Oc1ccc(C=Nc2nnc(S)s2)c(O)c1` [Compound 2, 4‐(((5‐mercapto‐1,3,4‐thiadiazol‐2‐yl)imino)methyl)benzene‐1,3‐diol], in data set [1], the pIC50 was 6.60 and the mode of inhibition entry is recorded as “uncompetitive”. As for `O=C(CN1CCC(Cc2ccccc2)CC1)N1CCN(c2ccc(O)cc2)CC1` [Compound 3, 2‐(4‐benzyl‐1‐piperidyl)‐1‐[4‐(4‐hydroxyphenyl)piperazin‐1‐yl]ethanone], in data set [1], the pIC50 is 5.42 and the mode of inhibition entry is “noncompetitive”. In the case of `COc1cc2[nH]cc(C(=O)CCN3CCC(Cc4ccc(F)cc4)CC3)c2cc1OC` [Compound 4, 1‐(5,6‐dimethoxy‐1H‐indol‐3‐yl)‐3‐(4‐(4‐fluorobenzyl)piperidin‐1‐yl)propan‐1‐one], in data set [1], the pIC50 is 5.12 and the mode of inhibition result is “mixed‐type”.

Consider `O=C(c1ccc([N+](=O)[O-])cc1[N+](=O)[O-])N1CCN(Cc2ccc(F)cc2)CC1` [Compound 5 c, [4‐(4‐fluorobenzyl)piperazin‐1‐yl](2,4‐dinitrophenyl)methanone], for which the “mode of inhibition of diphenolase activity” value in data set [2] is reported as “competitive inhibitor”.

`O=C(Cc1ccccc1Cl)N1CCN(Cc2ccc(F)cc2)CC1` [Compound 10, 1‐[4‐(4‐Fluorobenzyl)piperazin‐1‐yl]‐2‐(2‐chlorophenyl)ethan‐1‐one]: the melting point was in the range of 100 to 102 °C.

Take `O=C(Cc1ccc(Cl)cc1)N1CCN(Cc2ccc(F)cc2)CC1` [Compound 12, 1‐[4‐(4‐Fluorobenzyl)piperazin‐1‐yl]‐2‐(4‐chlorophenyl)ethan‐1‐one]: the melting point lay within 120 to 122 °C.

As for `O=C(Cc1cccc(Br)c1)N1CCN(Cc2ccc(F)cc2)CC1` [Compound 14, 1‐[4‐(4‐Fluorobenzyl)piperazin‐1‐yl]‐2‐(3‐bromophenyl)ethan‐1‐one], the melting point was 240 to 242 °C.

Turning to `O=C(Cc1ccccc1[N+](=O)[O-])N1CCN(Cc2ccc(F)cc2)CC1` [Compound 16, 1‐[4‐(4‐Fluorobenzyl)piperazin‐1‐yl]‐2‐(2‐nitrophenyl)ethan‐1‐one], the melting point fell in the range of 88 to 90 °C. As for `O=C(Cc1cccc([N+](=O)[O-])c1)N1CCN(Cc2ccc(F)cc2)CC1` [Compound 17, 1‐[4‐(4‐Fluorobenzyl)piperazin‐1‐yl]‐2‐(3‐nitrophenyl)ethan‐1‐one], the melting point lay within 83 to 84 °C.

Molecule `O=C(Cc1ccc([N+](=O)[O-])cc1)N1CCN(Cc2ccc(F)cc2)CC1` [Compound 18, 1‐[4‐(4‐Fluorobenzyl)piperazin‐1‐yl]‐2‐(4‐nitrophenyl)ethan‐1‐one] gave a melting point of 98 to 100 °C. `COc1ccc(CC(=O)N2CCN(Cc3ccc(F)cc3)CC2)cc1` [Compound 19, 1‐[4‐(4‐Fluorobenzyl)piperazin‐1‐yl]‐2‐(4‐methoxyphenyl)ethan‐1‐one] displayed a melting point of 234 to 238 °C. For the molecule `O=C(c1cccc(F)c1C(F)(F)F)N1CCN(Cc2ccc(F)cc2)CC1` [Compound 23, 1‐[4‐(4‐Fluorobenzyl)piperazin‐1‐yl]‐[3‐fluoro‐2‐(trifluoromethyl)phenyl]methanone], the viability at 48 h, 100 µM in data set [3] is above 90%. Besides, in data set [4], the cytotoxic effect result is on record as “no cytotoxic effect; also recorded: no cytotoxicity”. For the same molecule, in data set [5], the “mode of inhibition of diphenolase activity” value is “competitive inhibitors”.

In data set [3], `O=C(c1cc(F)ccc1C(F)(F)F)N1CCN(Cc2ccc(F)cc2)CC1` [Compound 25, 1‐[4‐(4‐Fluorobenzyl)piperazin‐1‐yl]‐[5‐fluoro‐2‐(trifluoromethyl)phenyl]methanone] returned a viability at 48 h, 100 µM above 90%. The cytotoxic effect entry in data set [4] is “no cytotoxic effect; also recorded: no cytotoxicity”. In data set [5], the “mode of inhibition of diphenolase activity” value is “competitive inhibitors”. Molecule `O=C(c1cccc(Cl)c1[N+](=O)[O-])N1CCN(Cc2ccc(F)cc2)CC1` [Compound 26, 1‐[4‐(4‐Fluorobenzyl)piperazin‐1‐yl]‐(3‐chloro‐2‐nitro‐phenyl)methanone] registered a melting point of 91 to 92 °C. The viability at 48 h, 100 µM in data set [3] is above 90%. Further, the cytotoxic effect entry in data set [4] is recorded as “absence of cytotoxicity; also recorded: no cytotoxic effect; also recorded: no cytotoxicity”. The antimelanogenic effect entry in data set [6] (B16F10 cells) was “exerted antimelanogenic effect; also recorded: displayed antimelanogenic effects”. In data set [6] (lysates of α‐MSH-treated B16F10 cells, compound 0–100 μM, 48 h), the “tyrosinase activity in cellular model (L‐DOPA staining)” value was “decreased in a dose‐response manner”. The “mode of inhibition of diphenolase activity” value in data set [5] is “competitive inhibitors”. For `O=C(c1ccc(Cl)cc1[N+](=O)[O-])N1CCN(Cc2ccc(F)cc2)CC1` [Compound 27, 1‐[4‐(4‐Fluorobenzyl)piperazin‐1‐yl]‐(4‐chloro‐2‐nitro‐phenyl)methanone], the melting point lay in the range of 141 to 142 °C. In the case of `O=C(c1cc(Cl)ccc1[N+](=O)[O-])N1CCN(Cc2ccc(F)cc2)CC1` [Compound 28, 1‐[4‐(4‐Fluorobenzyl)piperazin‐1‐yl]‐(5‐chloro‐2‐nitro‐phenyl)methanone], the melting point was in the range of 130 to 131 °C. `COc1ccc(C(=O)N2CCN(Cc3ccc(F)cc3)CC2)c([N+](=O)[O-])c1` [Compound 31, 1‐[4‐(4‐Fluorobenzyl)piperazin‐1‐yl]‐(4‐methoxy‐2‐nitro‐phenyl)methanone] showed a melting point of 133 to 134 °C. On the same count and under the same terms, then `COc1ccc([N+](=O)[O-])c(C(=O)N2CCN(Cc3ccc(F)cc3)CC2)c1` [Compound 32, 1‐[4‐(4‐Fluorobenzyl)piperazin‐1‐yl]‐(5‐methoxy‐2‐nitro‐phenyl)methanone], with 151 to 152 °C.

On to `O=c1cc(CO)occ1O` [KA, 5‐hydroxy‐2‐(hydroxymethyl)‐4H‐pyran‐4‐one], for which the mode of inhibition entry in data set [1] (classification from literature) was “competitive”.

In general, pIC50 refers to the negative decadic logarithm of the IC50, by convention in mol/L. In general, melting point refers to the temperature, or range, at which the solid turns liquid. The viability is the share of living cells, or the viability signal relative to a control.
